Test results from patent US20240150290A1, “HETEROCYCLIC P2Y14 RECEPTOR ANTAGONISTS” (priority 2021, published 2024).

Each molecule was assayed against T1, hP2Y14R (Homo sapiens, UniProt Q15391) (assay: Inhibition of fluorescent antagonist binding in whole hP2Y14R-expressing CHO cells (flow cytometry)). Conditions: Example 5 table; whole cell fluorescent binding assay; read-out: IC50.
T1 construct: expressed in transfected cells; host or cells: CHO cells
T1 sequence (Q15391 1-338): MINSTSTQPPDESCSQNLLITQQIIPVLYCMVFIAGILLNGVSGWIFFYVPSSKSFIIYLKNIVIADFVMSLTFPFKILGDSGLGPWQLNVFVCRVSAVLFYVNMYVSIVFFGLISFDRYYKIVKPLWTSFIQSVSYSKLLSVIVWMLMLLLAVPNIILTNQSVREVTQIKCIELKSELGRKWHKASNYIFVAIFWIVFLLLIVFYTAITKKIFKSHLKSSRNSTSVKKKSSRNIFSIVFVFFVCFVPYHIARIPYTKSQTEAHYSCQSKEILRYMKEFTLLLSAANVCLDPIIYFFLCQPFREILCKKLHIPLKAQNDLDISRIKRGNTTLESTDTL
`O=C(O)c1cc(-c2ccc([C@H]3[C@@H]4CNC[C@H]3C4)cc2)c2ccc(-c3ccc(C(F)(F)F)cc3)cc2c1` [Compound 424, 4-(4-((1R,5S,6r)-3-Azabicyclo[3.1.1]heptan-6-yl)phenyl)-7-(4-(trifluoromethyl)phenyl)-2-naphthoic acid] showed an IC50 of 0.524 ± 0.104 µM. `O=C(O)c1cc(-c2ccc(C3CNC3)cc2)c2ccc(-c3ccc(C(F)(F)F)cc3)cc2c1` [Compound 405, 4-(4-(Azetidin-3-yl)phenyl)-7-(4-(trifluoromethyl)phenyl)-2-naphthoic acid] gave an IC50 of 0.0659 ± 0.0193 µM. Work on `O=C(O)c1cc(-c2ccc(C3(O)CC4(CNC4)C3)cc2)c2ccc(-c3ccc(C(F)(F)F)cc3)cc2c1` [Compound 408, 4-(4-(6-Hydroxy-2-azaspiro[3.3]heptan-6-yl)phenyl)-7-(4-(trifluoromethyl)phenyl)-2-naphthoic acid] yielded an IC50 of 0.0208 ± 0.0056 µM. For `O=C(O)c1cc(-c2ccc(C3(O)CCCNCCC3)cc2)c2ccc(-c3ccc(C(F)(F)F)cc3)cc2c1` [Compound 430, 4-(4-(5-hydroxyazocan-5-yl)phenyl)-7-(4-(trifluoromethyl)phenyl)-2-naphthoic acid], the IC50 was 1.78 ± 0.44 µM. Molecule `O=C(O)c1cc(-c2ccc(C3CCCNCC3)cc2)c2ccc(-c3ccc(C(F)(F)F)cc3)cc2c1` (centres unmarked) [Compound 426, 4-(4-(Azepan-4-yl)phenyl)-7-(4-(trifluoromethyl)phenyl)-2-naphthoic acid] has an IC50 of 0.00958 ± 0.00514 µM. With `O=C(O)c1cc(-c2ccc([C@@]3(O)[C@@H]4CNC[C@H]3C4)cc2)c2ccc(-c3ccc(C(F)(F)F)cc3)cc2c1` [Compound 425, 4-(4-((1R,5S,6r)-6-Hydroxy-3-azabicyclo[3.1.1]heptan-6-yl)phenyl)-7-(4-(trifluoromethyl)phenyl)-2-naphthoic acid] the IC50 was 0.00592 ± 0.00055 µM. Work on `O=C(O)c1cc(-c2ccc(C3CC4(CNC4)C3)cc2)c2ccc(-c3ccc(C(F)(F)F)cc3)cc2c1` [Compound 406, 4-(4-(2-Azaspiro[3.3]heptan-6-yl)phenyl)-7-(4-(trifluoromethyl)phenyl)-2-naphthoic acid] yielded an IC50 of 0.0466 ± 0.0071 µM. Molecule `O=C(O)c1cc(-c2ccc(C3=CC4(CNC4)C3)cc2)c2ccc(-c3ccc(C(F)(F)F)cc3)cc2c1` [Compound 407, 4-(4-(2-Azaspiro[3.3]hept-5-en-6-yl)phenyl)-7-(4-(trifluoromethyl)phenyl)-2-naphthoic acid] has an IC50 of 0.00969 ± 0.00356 µM. Work on “4-(4-(6-Methoxy-2-azaspiro[3.3]heptan-6-yl)phenyl)-7-(4-(trifluoromethyl)phenyl)-2-naphthoic acid and 4-(4-(6-(methoxy-d3)-2-azaspiro[3.3]heptan-6-yl)phenyl)-7-(4-(trifluoromethyl)phenyl)-2-naphthoic acid [Compound 409]” yielded an IC50 of 0.0465 ± 0.01 µM. “Mixture of 4-(4-(2,3,6,7-Tetrahydro-1H-azepin-4-yl)phenyl)-7-(4-(trifluoromethyl)phenyl)-2-naphthoic acid and 4-(4-(2,5,6,7-tetrahydro-1H-azepin-4-yl)phenyl)-7-(4-(trifluoromethyl)phenyl)-2-naphthoic acid [Compound 427]” showed an IC50 of 0.0119 ± 0.0036 µM.

Same assay, conditions: Table 1; fluorescent antagonist 2, hP2Y14R-CHO cells, 3-4 determinations; read-out: IC50, hP2Y14R (μM, mean ± SEM)
`CC(C)(C)OC(=O)N1CCC(C(=O)Nc2ccc(-c3cc(C(=O)O)cc(-n4cc(-c5ccc(C(F)(F)F)cc5)nn4)c3)cc2)CC1` [Compound 12, 4′-(1-(tert-Butoxycarbonyl)piperidine-4-carboxamido)-5-(4-(4-(trifluoromethyl)phenyl)-1H-1,2,3-triazol-1-yl)-[1,1′-biphenyl]-3-carboxylic acid] was tested, and the IC50 was 22.5 ± 3.7 µM. `O=C(O)c1cc(-c2ccc(CCCCO)cc2)cc(-n2cc(-c3ccc(C(F)(F)F)cc3)nn2)c1` [Compound 21, 4′-(4-Hydroxybutyl)-5-(4-(4-(trifluoromethyl)phenyl)-1H-1,2,3-triazol-1-yl)-[1,1′-biphenyl]-3-carboxylic acid] showed an IC50 of 9.22 ± 1.22 µM. Molecule `NC(=O)Cc1ccc(-c2cc(C(=O)O)cc(-n3cc(-c4ccc(C(F)(F)F)cc4)nn3)c2)cc1` [Compound 16, 4′-(2-Amino-2-oxoethyl)-5-(4-(4-(trifluoromethyl)phenyl)-1H-1,2,3-triazol-1-yl)-[1,1′-biphenyl]-3-carboxylic acid] has an IC50 of 1.29 ± 0.32 µM. In the case of `O=C(O)c1cc(-c2ccc(-c3cc(CCO)on3)cc2)cc(-n2cc(-c3ccc(C(F)(F)F)cc3)nn2)c1` [Compound 30, 4′-(5-(2-Hydroxyethyl)isoxazol-3-yl)-5-(4-(4-(trifluoromethyl)phenyl)-1H-1,2,3-triazol-1-yl)-[1,1′-biphenyl]-3-carboxylic acid], the IC50 is reported as 0.389 ± 0.042 µM. For `O=C(O)c1ccc(-c2cc(C(=O)O)cc(-n3cc(-c4ccc(C(F)(F)F)cc4)nn3)c2)cc1` [Compound 13, 5-(4-(4-(Trifluoromethyl)phenyl)-1H-1,2,3-triazol-1-yl)-[1,1′-biphenyl]-3,4′-dicarboxylic acid], the IC50 was 0.632 ± 0.023 µM. For `NCCCc1ccc(-c2cc(C(=O)O)cc(-n3cc(-c4ccc(C(F)(F)F)cc4)nn3)c2)cc1` [Compound 18, 4′-(3-Aminopropyl)-5-(4-(4-(trifluoromethyl)phenyl)-1H-1,2,3-triazol-1-yl)-[1,1′-biphenyl]-3-carboxylic acid], the IC50 was 0.292 ± 0.067 µM. `CC(C)(C)OC(=O)NCC1(c2ccc(-c3cc(C(=O)O)cc(-n4cc(-c5ccc(C(F)(F)F)cc5)nn4)c3)cc2)CC1` [Compound 24, 4′-(1-(((tert-Butoxycarbonyl)amino)methyl)cyclopropyl)-5-(4-(4-(trifluoromethyl)phenyl)-1H-1,2,3-triazol-1-yl)-[1,1′-biphenyl]-3-carboxylic acid] gave an IC50 of 18.8 ± 2 µM. With `NC1(c2ccc(-c3cc(C(=O)O)cc(-n4cc(-c5ccc(C(F)(F)F)cc5)nn4)c3)cc2)CC1` [Compound 22, 4′-(1-Aminocyclopropyl)-5-(4-(4-(trifluoromethyl)phenyl)-1H-1,2,3-triazol-1-yl)-[1,1′-biphenyl]-3-carboxylic acid] the IC50 was 14.1 ± 0.9 µM. With `NC1(c2ccc(-c3cc(C(=O)O)cc(-n4cc(-c5ccc(C(F)(F)F)cc5)nn4)c3)cc2)CCC1` [Compound 25, 4′-(1-Aminocyclobutyl)-5-(4-(4-(trifluoromethyl)phenyl)-1H-1,2,3-triazol-1-yl)-[1,1′-biphenyl]-3-carboxylic acid] the IC50 was 2 ± 0.18 µM. `N#CCCc1ccc(-c2cc(C(=O)O)cc(-n3cc(-c4ccc(C(F)(F)F)cc4)nn3)c2)cc1` [Compound 17, 4′-(2-Cyanoethyl)-5-(4-(4-(trifluoromethyl)phenyl)-1H-1,2,3-triazol-1-yl)-[1,1′-biphenyl]-3-carboxylic acid] was tested, and the IC50 was 17.8 ± 2.9 µM. For `CC(=O)Nc1ccc(-c2cc(C(=O)O)cc(-n3cc(-c4ccc(C(F)(F)F)cc4)nn3)c2)cc1` [Compound 8, 4′-Acetamido-5-(4-(4-(trifluoromethyl)phenyl)-1H-1,2,3-triazol-1-yl)-[1,1′-biphenyl]-3-carboxylic acid], the IC50 was 0.811 ± 0.095 µM. For `NCC1(c2ccc(-c3cc(C(=O)O)cc(-n4cc(-c5ccc(C(F)(F)F)cc5)nn4)c3)cc2)CC1` [Compound 23, 4′-(1-(Aminomethyl)cyclopropyl)-5-(4-(4-(trifluoromethyl)phenyl)-1H-1,2,3-triazol-1-yl)-[1,1′-biphenyl]-3-carboxylic acid], the IC50 was 8.91 ± 0.75 µM. `Nc1ccc(-c2cc(C(=O)O)cc(-n3cc(-c4ccc(C(F)(F)F)cc4)nn3)c2)cc1` [Compound 7, 4′-Amino-5-(4-(4-(trifluoromethyl)phenyl)-1H-1,2,3-triazol-1-yl)-[1,1′-biphenyl]-3-carboxylic acid] gave an IC50 of 1.48 ± 0.16 µM.

Same assay, conditions: Table 2; whole hP2Y14R-CHO cells, 20 nM fluorescent antagonist 3, mean+SEM, n = 3-6; read-out: IC50
Work on `CS(=O)(=O)N1C[C@H]2C[C@@H]1C[C@@H]2c1ccc(-c2cc(C(=O)O)cc3cc(-c4ccc(C(F)(F)F)cc4)ccc23)cc1` [Compound 123] yielded an IC50 of 0.497 ± 0.092 µM. `O=C(O)c1cc(-c2ccc([C@H]3C[C@H]4C[C@@H]3NC4=O)cc2)c2ccc(-c3ccc(C(F)(F)F)cc3)cc2c1` [Compound 122, 4-(4-((1S,4S,6R)-3-Oxo-2-azabicyclo[2.2.1]heptan-6-yl)phenyl)-7-(4-(trifluoromethyl)phenyl)-2-naphthoic acid] showed an IC50 of 0.0586 ± 0.0129 µM. With `O=C(O)c1cc(-c2ccc(C3CCN(CCCCc4cn([C@@H]5O[C@H](CO)[C@@H](O)[C@H](O)[C@H]5O)nn4)CC3)cc2)c2ccc(-c3ccc(C(F)(F)F)cc3)cc2c1` [Compound 508, 7-(4-(Trifluoromethyl)phenyl)-4-(4-(1-(4-(1-((2R,3R,4S,5S,6R)-3,4,5-trihydroxy-6-(hydroxymethyl)tetrahydro-2H-pyran-2-yl)-1H-1,2,3-triazol-4-yl)butyl)piperidin-4-yl)phenyl)-2-naphthoic acid] the IC50 was 0.0157 ± 0.0025 µM.

Same assay, conditions: Table 6; fluorescent hP2Y14R antagonist (3); read-out: hP2Y14R, IC50
`N[C@H]1C[C@@H](CO)C[C@@H]1c1ccc(-c2cc(C(=O)O)cc3cc(-c4ccc(C(F)(F)F)cc4)ccc23)cc1` [Compound 137, 4-(4-((1R,2S,4S)-2-Amino-4-(hydroxymethyl)cyclopentyl)phenyl)-7-(4-(trifluoromethyl)phenyl)-2-naphthoic acid] showed an IC50 of 0.125 ± 0.045 µM.

Same assay, conditions: read-out: IC50
`O=C(O)c1cc(-c2ccc(C3C[C@H]4CNC[C@@H]4C3)cc2)c2ccc(-c3ccc(C(F)(F)F)cc3)cc2c1` (racemic) [Compound 413, rac-4-(4-((3aR,6aR)-Octahydrocyclopenta[c]pyrrol-5-yl)phenyl)-7-(4-(trifluoromethyl)phenyl)-2-naphthoic acid] gave an IC50 of 0.032 ± 0.0112 µM. In the case of `O=C(O)c1cc(-c2ccc(C3(O)C[C@H]4CNC[C@@H]4C3)cc2)c2ccc(-c3ccc(C(F)(F)F)cc3)cc2c1` (racemic) [Compound 411, rac-4-(4-((3aR,6aR)-5-hydroxyoctahydrocyclopenta[c]pyrrol-5-yl)phenyl)-7-(4-(trifluoromethyl)phenyl)-2-naphthoic acid], the IC50 is reported as 0.00948 ± 0.00166 µM.
